Assay results published in patent publication US20260297092A1, “PYRAZOLOPYRIMIDINE DERIVATIVES AS INHIBITORS OF NLRP3” (Takeda Pharmaceutical Company Limited, priority 2023, published 2026).

Experiments:
[1] = test system: NLRP3 inflammasome (IL-1β production in THP-1 cells); experiment: IL-1β TR-FRET Assay (percentage of inhibition at 300 nM, 6 μM or 10 μM); format: cell-based, human; details: Homo sapiens, LPS priming, ATP activation; for inhibition at 6 µM: THP-1, 6 μM, read-out: IL-1β inhibitory rate at 6 μM (%); for inhibition at 0.3 µM: THP-1, 300 nM, read-out: IL-1β inhibitory rate at 300 nM (%)
Outline: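 THP-1 cells were differentiated with 25 ng/mL IFN-γ for 24 h, primed with 50 ng/mL LPS in serum-free medium for 24 h, then given compound for 30 min before 20 mM ATP for 2 h. Supernatant IL-1β was measured by HTRF after 16-24 h at room temperature. Inhibition was normalized between DMSO (high) and 3 μM MCC-950 (low).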

[2] = test system: TNF-α (NF-κB pathway, THP-1 cells); experiment: TNF-α Assay (IC50); format: cell-based, human; details: Homo sapiens, 600 ng/mL LPS, 3 hours
Outline: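 THP-1 cells differentiated to macrophages with 25 ng/mL IFN for 24 h, plated 40,000/well in serum-free medium, preincubated with compounds 30 min at 37 °C, then stimulated with 600 ng/mL LPS for 3 h. Supernatant TNF-α measured by ELISA; IC50 from four-parameter logistic fit, 100% inhibition defined by TPCA-1.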

Structure (SMILES): Cc1cc(C2CC2)cc(C)c1-n1cc2c(=O)[nH]c([C@@]3(F)CCOC3)nc2n1 [Example 247, 2-(4-cyclopropyl-2,6-dimethylphenyl)-6-(3-fluorooxolan-3-yl)-2,5-dihydro-4H-pyrazolo[3,4-d]pyrimidin-4-one]
- inhibition at 6 µM [1]: 100%
- IC50 [2]: > 30 µM

Structure (SMILES): Cc1ncc(-c2nc3nn(-c4c(C)cc(C5CC5)cc4C)cc3c(=O)[nH]2)o1 [Example 273, 2-(4-cyclopropyl-2,6-dimethylphenyl)-6-(2-methyl-1,3-oxazol-5-yl)-2,5-dihydro-4H-pyrazolo[3,4-d]pyrimidin-4-one]
- inhibition at 6 µM [1]: 99%
- IC50 [2]: > 30 µM

Structure (SMILES): CCOc1nc2nn(-c3c(C)cc(C4CC4)cc3C)cc2c(=O)[nH]1 [Example 132, 2-(4-cyclopropyl-2,6-dimethylphenyl)-6-ethoxy-2,5-dihydro-4H-pyrazolo[3,4-d]pyrimidin-4-one]
- inhibition at 0.3 µM [1]: 99%
- IC50 [2]: > 30 µM

Structure (SMILES): Cc1cc(C2CC2)cc(C)c1-n1cc2c(=O)[nH]c([C@H]3CC3(F)F)nc2n1 [Example 191, 2-(4-cyclopropyl-2,6-dimethylphenyl)-6-(2,2-difluorocyclopropyl)-2,5-dihydro-4H-pyrazolo[3,4-d]pyrimidin-4-one]
- inhibition at 0.3 µM [1]: 109%
- IC50 [2]: > 30 µM

Structure (SMILES): Cc1nc(-c2nc3nn(-c4c(F)cc(C5CC5)cc4C(F)F)cc3c(=O)[nH]2)co1 [Example 298, 2-[4-cyclopropyl-2-(difluoromethyl)-6-fluorophenyl]-6-(2-methyl-1,3-oxazol-4-yl)-2,5-dihydro-4H-pyrazolo[3,4-d]pyrimidin-4-one]
- inhibition at 6 µM [1]: 99%
- IC50 [2]: > 30 µM

Structure (SMILES): Cc1cc(C2CC2)cc(C)c1-n1cc2c(=O)[nH]c(O[C@H]3CCOC3)nc2n1 [Example 286, 2-(4-cyclopropyl-2,6-dimethylphenyl)-6-{[(3S)-oxolan-3-yl]oxy}-2,5-dihydro-4H-pyrazolo [3,4-d]pyrimidin-4-one]
- inhibition at 6 µM [1]: 98%
- IC50 [2]: > 30 µM

Structure (SMILES): CO[C@H]1CCCC[C@@H]1c1nc2nn(-c3c(C)cc(C)cc3O)cc2c(=O)[nH]1 (racemic) [Example 36, racemic mixture of 2-(2-hydroxy-4,6-dimethylphenyl)-6-[(1R,2S)-2-methoxycyclohexyl]-2,5-dihydro-4H-pyrazolo[3,4-d]pyrimidin-4-one and 2-(2-hydroxy-4,6-dimethylphenyl)-6-[(1S,2R)-2-methoxycyclohexyl]-2,5-dihydro-4H-pyrazolo [3,4-d]pyrimidin-4-one]
- inhibition at 0.3 µM [1]: 97%
- IC50 [2]: > 30 µM

Structure (SMILES): Cc1cc(C2CC2)cc(C)c1-n1cc2c(=O)[nH]c(C3CCOCC3)nc2n1 [Example 198, 2-(4-cyclopropyl-2,6-dimethylphenyl)-6-(oxan-4-yl)-2,5-dihydro-4H-pyrazolo[3,4-d]pyrimidin-4-one]
- inhibition at 0.3 µM [1]: 95%
- IC50 [2]: > 30 µM

Structure (SMILES): Cc1ccc(-n2cc3c(=O)[nH]c(OC4CC5(COC5)C4)nc3n2)c(C)c1 [Example 199, 2-(2,4-dimethylphenyl)-6-[(2-oxaspiro[3.3]heptan-6-yl)oxy]-2,5-dihydro-4H-pyrazolo[3,4-d]pyrimidin-4-one]
- inhibition at 0.3 µM [1]: 52%
- IC50 [2]: > 30 µM

Structure (SMILES): CCOCc1nc2nn(-c3c(C)cc(C)cc3O)cc2c(=O)[nH]1 [Example 46, 6-(ethoxymethyl)-2-(2-hydroxy-4,6-dimethylphenyl)-2,5-dihydro-4H-pyrazolo[3,4-d]pyrimidin-4-one]
- inhibition at 0.3 µM [1]: 95%
- IC50 [2]: > 30 µM

Structure (SMILES): Cc1ccc(-n2nc3nc(-c4ccccn4)[nH]c(=O)c3c2C)c(O)c1 [Example 124, 2-(2-hydroxy-4-methylphenyl)-3-methyl-6-(pyridin-2-yl)-2,5-dihydro-4H-pyrazolo[3,4-d]pyrimidin-4-one]
- inhibition at 0.3 µM [1]: 97%
- IC50 [2]: > 30 µM

Structure (SMILES): Cc1cc(C)c(-n2cc3c(=O)[nH]c(C4CC4)nc3n2)c(O)c1 [Example 6, 6-cyclopropyl-2-(2-hydroxy-4,6-dimethylphenyl)-2,5-dihydro-4H-pyrazolo[3,4-d]pyrimidin-4-one]
- inhibition at 0.3 µM [1]: 98%
- IC50 [2]: > 30 µM

Structure (SMILES): CCOc1nc2nn(-c3c(C)ccc(CC)c3O)cc2c(=O)[nH]1 [Example 72, 6-ethoxy-2-(3-ethyl-2-hydroxy-6-methylphenyl)-2,5-dihydro-4H-pyrazolo[3,4-d]pyrimidin-4-one]
- inhibition at 0.3 µM [1]: 94%
- IC50 [2]: > 30 µM

Structure (SMILES): Cc1cc(C)c(-n2cc3c(=O)[nH]c(OCCCCN(C)C)nc3n2)c(O)c1 [Example 129, 6-[4-(dimethylamino)butoxy]-2-(2-hydroxy-4,6-dimethylphenyl)-2,5-dihydro-4H-pyrazolo[3,4-d]pyrimidin-4-one]
- inhibition at 0.3 µM [1]: 98%
- IC50 [2]: > 30 µM

Structure (SMILES): Cc1cc(C)c(-n2cc3c(=O)[nH]c(OCCCN(C)C)nc3n2)c(O)c1 [Example 115, 6-[3-(dimethylamino)propoxy]-2-(2-hydroxy-4,6-dimethylphenyl)-2,5-dihydro-4H-pyrazolo[3,4-d]pyrimidin-4-one]
- inhibition at 0.3 µM [1]: 99%
- IC50 [2]: > 30 µM

Structure (SMILES): CCOc1nc2nn(-c3c(C)cc(C(F)F)cc3F)cc2c(=O)[nH]1 [Example 136, 2-[4-(difluoromethyl)-2-fluoro-6-methylphenyl]-6-ethoxy-2,5-dihydro-4H-pyrazolo[3,4-d]pyrimidin-4-one]
- inhibition at 0.3 µM [1]: 92%
- IC50 [2]: > 30 µM

Structure (SMILES): Cc1cc(C2CC2)cc(C)c1-n1cc2c(=O)[nH]c(C3CC(F)(F)C3)nc2n1 [Example 262, 2-(4-cyclopropyl-2,6-dimethylphenyl)-6-(3,3-difluorocyclobutyl)-2,5-dihydro-4H-pyrazolo[3,4-d]pyrimidin-4-one]
- inhibition at 6 µM [1]: 100%
- IC50 [2]: > 30 µM

Structure (SMILES): CCOc1nc2nn(-c3c(O)cc(C)cc3F)c(C)c2c(=O)[nH]1 [Example 51, 6-ethoxy-2-(2-fluoro-6-hydroxy-4-methylphenyl)-3-methyl-2,5-dihydro-4H-pyrazolo[3,4-d]pyrimidin-4-one]
- inhibition at 0.3 µM [1]: 100%
- IC50 [2]: > 30 µM

Structure (SMILES): CCOc1nc2nn(-c3c(Br)cc(C)c(F)c3F)cc2c(=O)[nH]1 [Example 97, 2-(6-bromo-2,3-difluoro-4-methylphenyl)-6-ethoxy-2,5-dihydro-4H-pyrazolo[3,4-d]pyrimidin-4-one]
- inhibition at 0.3 µM [1]: 66%
- IC50 [2]: > 30 µM

Structure (SMILES): COCc1nc2nn(-c3c(C)cc(C)cc3O)cc2c(=O)[nH]1 [Example 28, 2-(2-hydroxy-4,6-dimethylphenyl)-6-(methoxymethyl)-2,5-dihydro-4H-pyrazolo[3,4-d]pyrimidin-4-one]
- inhibition at 0.3 µM [1]: 101%
- IC50 [2]: > 30 µM

Structure (SMILES): CCOc1nc2nn(-c3ccc(C(F)(F)F)cc3O)c(C)c2c(=O)[nH]1 [Example 59, 6-ethoxy-2-[2-hydroxy-4-(trifluoromethyl)phenyl]-3-methyl-2,5-dihydro-4H-pyrazolo[3,4-d]pyrimidin-4-one]
- inhibition at 0.3 µM [1]: 98%
- IC50 [2]: > 30 µM

Structure (SMILES): Cc1cc(C)c(-n2cc3c(=O)[nH]c(OCCN(C)C)nc3n2)c(O)c1 [Example 50, 6-[2-(dimethylamino)ethoxy]-2-(2-hydroxy-4,6-dimethylphenyl)-2,5-dihydro-4H-pyrazolo[3,4-d]pyrimidin-4-one]
- inhibition at 0.3 µM [1]: 101%
- IC50 [2]: > 30 µM

Structure (SMILES): CCOc1nc2nn(-c3c(F)cc(C(F)(F)F)cc3Br)cc2c(=O)[nH]1 [Example 54, 2-[2-bromo-6-fluoro-4-(trifluoromethyl)phenyl]-6-ethoxy-2,5-dihydro-4H-pyrazolo[3,4-d]pyrimidin-4-one]
- inhibition at 0.3 µM [1]: 100%
- IC50 [2]: > 30 µM

Structure (SMILES): CCOc1nc2nn(-c3c(C)cc(C4(F)CC4)cc3F)cc2c(=O)[nH]1 [Example 182, 6-ethoxy-2-[2-fluoro-4-(1-fluorocyclopropyl)-6-methylphenyl]-2,5-dihydro-4H-pyrazolo[3,4-d]pyrimidin-4-one]
- inhibition at 0.3 µM [1]: 102%
- IC50 [2]: > 30 µM

Structure (SMILES): Cc1cc(C2CC2)cc(C)c1-n1cc2c(=O)[nH]c(-c3ccn(C)n3)nc2n1 [Example 297, 2-(4-cyclopropyl-2,6-dimethylphenyl)-6-(1-methyl-1H-pyrazol-3-yl)-2,5-dihydro-4H-pyrazolo[3,4-d]pyrimidin-4-one]
- inhibition at 6 µM [1]: 90%
- IC50 [2]: > 30 µM

Structure (SMILES): CCOc1nc2nn(-c3ncc(C4CC4)cc3C(F)(F)F)cc2c(=O)[nH]1 [Example 153, 2-[5-cyclopropyl-3-(trifluoromethyl)pyridin-2-y]-6-ethoxy-2,5-dihydro-4H-pyrazolo[3,4-d]pyrimidin-4-one]
- inhibition at 0.3 µM [1]: 101%
- IC50 [2]: > 30 µM

Structure (SMILES): CCOc1nc2nn(-c3ncc(C4CC4)cc3C)cc2c(=O)[nH]1 [Example 154, 2-(5-cyclopropyl-3-methylpyridin-2-yl)-6-ethoxy-2,5-dihydro-4H-pyrazolo[3,4-d]pyrimidin-4-one]
- inhibition at 0.3 µM [1]: 93%
- IC50 [2]: > 30 µM

Structure (SMILES): Cc1cc(C)c(-n2cc3c(=O)[nH]c(CC4CCCO4)nc3n2)c(O)c1 (stereo not drawn) [Example 33, 2-(2-hydroxy-4,6-dimethylphenyl)-6-[(oxolan-2-yl)methyl]-2,5-dihydro-4H-pyrazolo[3,4-d]pyrimidin-4-one]
- inhibition at 0.3 µM [1]: 97%
- IC50 [2]: > 30 µM

Structure (SMILES): CCc1nc2nn(-c3c(C)cc(C4CC4)cc3C)cc2c(=O)[nH]1 [Example 241, 2-(4-cyclopropyl-2,6-dimethylphenyl)-6-ethyl-2,5-dihydro-4H-pyrazolo[3,4-d]pyrimidin-4-one]
- inhibition at 6 µM [1]: 101%
- IC50 [2]: > 30 µM

Structure (SMILES): CO[C@H](C)COc1nc2nn(-c3c(F)cc(C4CC4)cc3C(F)F)cc2c(=O)[nH]1 [Example 200, 2-[4-cyclopropyl-2-(difluoromethyl)-6-fluorophenyl]-6-[(2R)-2-methoxypropoxy]-2,5-dihydro-4H-pyrazolo[3,4-d]pyrimidin-4-one]
- inhibition at 0.3 µM [1]: 98%
- IC50 [2]: > 30 µM
